Experimental findings from paper PMC11748689, “Pharmacological and structural understanding of the Trypanosoma cruzi proteasome provides key insights for developing site-specific inhibitors” (The Journal of Biological Chemistry, 2024) are described below.

Molecules are shown by their SMILES. A value given as a limit tells only on which side of the number the result lay.

For experiment [1], the target named is recombinant Δβ1Δβ2 mutant T. cruzi proteasome (chymotrypsin-like activity) (Trypanosoma cruzi, UniProt V5BU39+V5C017). The experiment is described as follows: biochemical. The experiment is classed as biochemical. The protocol: (§1) Point mutations were created in individual subunits using overlapping PCR from the original templates using Polh and Tn7L primers outside the genes and suitable internal primers to introduce selected mutations. For Δβ1Δβ2, β1 Thr 55, and β2 Thr 67 were both mutated to Ala, the β4^R mutant was produced by mutating Phe 24 and Ile 29 to Leu and Met respectively in β4 subunit.
(§2) Chymotrypsin-, trypsin-, and caspase-like activity assays were performed using a commercially available Proteasome-Glo 3-substrate system assay kit (catalog number G8532) (Promega Corporation) according to the manufacturers protocols and as previously described ([24]).
(§3) Prior to running assays, Proteasome-Glo buffer was used to reconstitute the luciferin detection reagent (containing a recombinant thermostable luciferase enzyme). The resuspended luciferin detection reagent was then mixed with Proteasome-Glo chymotrypsin-, trypsin- or caspase-like substrates (either 40 μM suc-Leu-Leu-Val-Tyr-aminoluciferin, 30 μM Z-Leu-Arg-Arg-aminoluciferin (Z is benzyloxycarbonyl) or 40 μM Z-Nle-Pro-Nle-Asp-aminoluciferin respectively (these concentrations represent 2x final assay concentrations)). These substrate mixtures were allowed to incubate at room temperature for 60 min prior to use to allow the removal of any contaminating free aminoluciferin.
(§4) Proteasome assays were carried out using 384-well, white, low-volume plates (catalog number 784904) (Greiner Bio-One) at room temperature (∼23 °C) in 8 μl reaction volumes. When activity checks were to be run in the presence or absence of a fixed concentration of proteasome inhibitor, 80 nL of the inhibitor (at a concentration 100x the required final assay concentration), or 80 nL dimethylsulfoxide (DMSO), were dispensed into assay plates using an Echo 550 acoustic dispenser (Labcyte).
(§5) A 1 in 2 dilution series of the various T. cruzi proteasome samples (native, recombinant WT, β4^R mutant, and Δβ1Δβ2 mutant) were produced in assay buffer (50 mM Tris–HCl, pH 7.5, 10 mM sucrose, 5 mM MgCl2, 1 mM DTT, 2 mM ATP, 150 mM NaCl, 1 mM EDTA, and 0.05 mg/ml bovine serum albumin). Subsequently, 4 μl of the various concentrations of diluted proteasome were added to assay plates using an electronic multichannel pipette (Integra Biosciences Ltd). When kinetic read activity checks were performed (Fig. 2), proteasome final assay concentrations used were 115 μg/ml, 115 μg/ml, and 230 μg/ml native proteasome (in the chymotrypsin, trypsin, and caspase assays, respectively), and 4.1 μg/ml, 3.4 μg/ml, or 1.4 μg/ml recombinant WT proteasome (in the chymotrypsin, trypsin, and caspase assays, respectively). When activity checks were to be run in the presence or absence of a proteasome inhibitor plates containing inhibitor or DMSO control were incubated with the relevant proteasome sample for 60 min at room temperature (this step was not included in activity check experiments where compounds were not used).
(§6) Following the 60 min incubation of proteasome and compound (if required), assays were initiated with the addition of 4 μl of substrate mix (containing substrate and the luciferin detection reagent) using an electronic multichannel pipette. Final assay concentrations of substrates used were either 20 μM Suc-Leu-Leu-Val-Tyr-aminoluciferin, 15 μM Z-Leu-Arg-Arg-aminoluciferin, or 20 μM Z-Nle-Pro-Nle-Asp-aminoluciferin for chymotrypsin-, trypsin- or caspase-like activity respectively.
(§7) Luminescence was read either kinetically or as an endpoint read using an EnVision 2102 Multilabel Reader (PerkinElmer, Inc) with 0.2 s per well reading time. When kinetic assays were run, luminescence was read every 5 min for 90 min. Endpoint assays were run for 60 min before luminescence was read. All data processing and linear fit analyses were performed using Microsoft Excel for Microsoft 365 software (Redmond, Washington; https://www.microsoft.com/).

Experiment [2] deals with recombinant β4^R mutant T. cruzi proteasome (chymotrypsin-like activity) (Trypanosoma cruzi, UniProt V5BU39+V5C017, F24L/I29M). The experiment is described as follows: biochemical. The experiment is classed as biochemical. The protocol:
as §1, §2, §3, §4, §5, §6, §7

Experiment [3] concerns the target recombinant β4^R mutant T. cruzi proteasome (trypsin-like activity) (Trypanosoma cruzi, UniProt V5BCU3). The experiment is classed as biochemical. Particulars: for pIC50, Trypsin Assay, β4^R mutant: mean ± SD, N = 3. The protocol: as §1, §2, §3, §4, §5, §6, §7
For experiment [4], the target named is recombinant β4^R mutant T. cruzi proteasome (caspase-like activity) (Trypanosoma cruzi, UniProt V5BHX1). The experiment is described as follows: Caspase-like activity assay (Proteasome-Glo), recombinant β4^R mutant T. cruzi proteasome. Format: biochemical. The method, then:
as §1, §2, §3, §4, §5, §6, §7

In experiment [5] the test system is intracellular T. cruzi Silvio X10/7 A1 amastigotes. The experiment is described as follows: Intracellular T. cruzi assay. Format: cell-based. Conditions: Trypanosoma cruzi; 96 h compound treatment, Vero host cells; given as [mean pEC50, SD, N]; read-out: Mean pEC50 against intracellular T. cruzi parasites (converted). The method, then: Potency against intracellular T. cruzi Silvio X10/7 A1 amastigotes was determined as described previously ([53]), with a sole modification that the compound treatment duration was 96 h instead of 72 h. Vero host cells were obtained from The European Collection of Authenticated Cell Cultures (cat. number 84113001) and tested for mycoplasma (negative). T. cruzi Silvio X10/7 A1 was obtained from Prof. Alan Fairlamb, and discrete typing unit confirmed by genotyping ([53]).

For experiment [6], the target named is human proteasome (chymotrypsin activity) (Homo sapiens, UniProt P28074). The experiment is described as follows: Human proteasome chymotrypsin activity assay. Format: biochemical. Particulars: dose response curve, n = 2 (Fig. S7). The protocol: Human proteasome assays were carried out as described in ([42]).

Regarding `O=C(Nc1ccc(F)c(-c2cn3nc(-c4ccccc4)cnc3n2)c1)N1CCCC1` [DDD01012248], the IC50 in experiment [1] was 41.7 nM; in experiment [2], 2000 nM; in experiment [4], > 30200 nM. The “inhibition of chymotrypsin activity, Δβ1Δβ2 mutant, fixed concentration” value in experiment [1] (1 μM compound (Fig. 7B)) was “full inhibition”. The “inhibition of chymotrypsin activity, β4^R mutant, fixed concentration” value in experiment [2] (1 μM compound (Fig. 7C)) is listed as “no notable inhibition”. Besides, the “inhibition of trypsin activity, β4^R mutant, fixed concentration” value in experiment [3] (1 μM compound (Fig. S4)) is listed as “did not inhibit”. For the same molecule, the “pIC50, Trypsin Assay, β4^R mutant” value in experiment [3] was <4.52. In addition, the “inhibition of caspase activity, β4^R mutant, fixed concentration” value in experiment [4] (1 μM compound (Fig. S4)) is reported as “did not inhibit”. In addition, the EC50 in experiment [5] was 20 nM.

Take `O=C(Nc1ccc(F)c(C(=O)NC2CC2)c1)c1ccc(COc2ccccc2)o1` [DDD02091966, N-(3-(cyclopropylcarbamoyl)-4-fluorophenyl)-5-(phenoxymethyl)furan-2-carboxamide]: the IC50 in experiment [1] is 45.7 nM; in experiment [2], > 30200 nM; in experiment [4], > 30200 nM. In addition, the “extent of inhibition in chymotrypsin dose-response curve, Δβ1Δβ2 mutant” value in experiment [1] (top of dose-response curve) is listed as “unable to fully inhibit”. Also, the “pIC50, Trypsin Assay, β4^R mutant” value in experiment [3] is given as <4.52. In addition, the “inhibition of the human chymotrypsin activity” value in experiment [6] was “no inhibition”. The EC50 in experiment [5] is 251 nM.
